# In patent US20260356835A1, “BICYCLIC HETEROARYL COMPOUNDS” (QuantX Biosciences US, Inc., priority 2023, published 2026):
# What was measured:
# [1] = molecular target: T1, N-his8-TEV-hPARG (389-976) (Homo sapiens, UniProt Q86W56); test: PARG Biochemical Enzymatic Assay (PARG inhibition HTRF assay); details: 62.5 pM PARG, 5 nM Biotin-Parylated PARP1 substrate, 60 minutes preincubation, 10 minutes reaction at 23 °C
# T1 construct: N-his8-TEV-hPARG (389-976); His8 (N); TEV protease cleavage site (N); made in house; host or cells: E. coli BL21(DE3)
# T1 sequence (Q86W56 389-976): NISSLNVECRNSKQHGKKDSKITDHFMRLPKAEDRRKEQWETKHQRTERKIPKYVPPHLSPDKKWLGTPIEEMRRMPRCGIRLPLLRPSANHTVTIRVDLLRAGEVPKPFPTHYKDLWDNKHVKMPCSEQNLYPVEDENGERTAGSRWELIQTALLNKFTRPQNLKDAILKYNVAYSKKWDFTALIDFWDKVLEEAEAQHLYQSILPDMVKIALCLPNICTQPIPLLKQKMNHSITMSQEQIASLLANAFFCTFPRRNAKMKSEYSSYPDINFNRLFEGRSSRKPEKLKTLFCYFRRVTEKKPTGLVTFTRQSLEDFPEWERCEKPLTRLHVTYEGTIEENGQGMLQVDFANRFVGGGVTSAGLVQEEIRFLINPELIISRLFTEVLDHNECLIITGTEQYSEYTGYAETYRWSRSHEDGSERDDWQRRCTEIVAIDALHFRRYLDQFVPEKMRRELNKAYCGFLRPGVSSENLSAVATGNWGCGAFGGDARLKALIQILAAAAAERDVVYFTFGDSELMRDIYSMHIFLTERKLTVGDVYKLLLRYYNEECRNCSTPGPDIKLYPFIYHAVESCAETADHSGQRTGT
# Description: PARG Biochemical Enzymatic Assay
# TEV-His8-PolyADP-Ribose Polymerase 1 (379-1014) (PARP1) and N-his8-TEV-hPARG (389-976) were used to transform BL21(DE3) competent cells followed by growth for 1 hour at 37 °C and plating on Kanamycin resistant agar plates. A single colony was then inoculated into 1 ml of Luria Broth and expansion into a 1 liter scale for growth at 37 °C for 3 hours. Expression was induced via 0.2 mM IPTG induction for 20 hours at 16 °C in BL21(DE3) E. coli. Purification was then performed using a Nickel column, size exclusion chromatography and HPLC analysis.
# For substrate preparation, […] nicked DNA and 2 μM PARP1 protein were mixed for 10 minutes at 25 °C 10 μM biotin-NAD+ and 100 μM NAD+ were then added and incubated for 60 minutes at 30 °C to yield PARylated PARP1 substrate.
# For compound screening, compounds were serially diluted to a 3× final concentration in assay buffer (Tris pH7.5 50 mM, KCl 50 mM, Tween-20 0.01%, BSA 0.1 mg/ml, EDTA 3 mM, EGTA 0.4 mM, DTT 1 mM) containing 1% DMSO. A top concentration of 1.5 μM for a 10-point dose response curve using a 1:3 dilution curve was used. 2.5×PARG (156.25 pM working concentration, 62.5 pM final concentration) was prepared in assay buffer and 4 ul added to a 384 well assay plate containing 2 μl of serially diluted compound. The plate was then centrifuged for 10 seconds and incubated for 60 minutes at 23 °C. 4 μl of 2.5× Biotin-Parylated PARP1 (12.5 nM working concentration, 5 nM final concentration) was then added to the plate and incubated for 10 minutes at 23 °C. 4 μl of […] Detection reagent containing 0.44 μg/ml of Streptavidin-Europium cryptate and 4 μg/ml of anti-6His-XL665 monoclonal antibody was added to the plate and incubated for 60 minutes at 23 °C. The Homogeneous Time Resolved Fluorescent (HTRF) signal was then measured on an Envision plate reader using and excitation wavelength of 337 nm and emission wavelengths of 615 nm and 665 nm. Normalized percent inhibition was then calculated using the following equation: % Inhibition normalized=(compound signal-min signal)/(max signal-min signal)*100%, where Maximum signal was substrate only wells and Minimum signal was enzyme and substrate well. IC50 was calculated by fitting % Inhibition values and log of compound concentrations to nonlinear regression (log(inhibitor) vs. response—Variable slope(four parameters)) with GraphPad 9.4.1
# For biochemical activity, bracket is denoted as: A<100 nM; 100 nM<B<500 nM; C>500 nM
# Kuramochi cells = test: Cellular Viability Assay (5 day Kuramochi cell viability, CellTiter-Glo); assay type: cell-based; details: 5 days, 37 °C, growth inhibition relative to Day 0 (T0) and DMSO
# Description: Kuramochi cells were seeded at a density of 1000 cells per well in a 384-well, white, sterile, clear bottom plate, using a Multidrop liquid dispenser and incubated for 24 hours at 37 °C in a 5% CO2 humidified environment. 24 hours later, compounds were added starting at a top dose of 10 μM for a 9-point dose response curve at a 1:3 dilution using an iDOT HT liquid handler and incubated for 5 days at 37 °C in a 5% CO2 humidified environment. After 5 days and at Day 0, plates were incubated at room temperature for 30 minutes followed by the addition of 30 μl of CellTiter-Glo Reagent. Plates were then mixed for 10 minutes on an orbital shaker followed by incubation at room temperature for 20 minutes. Luminescence was then read using the Envision plate reader. Percent Growth Inhibition was then calculated using the following equation: Percent Growth Inhibition normalized=100−(compound signal−T0)/(max signal−T0)*100%, where Max Signal refers to the DMSO only treated cells and T0 refers to the Day0 viability measurement. Growth Inhibition 50 was then calculated using the following equation: Y=Bottom+(Top−Bottom)/(1+10^((Log IC50−X)*hillslope)).
# For cell activity, bracket is denoted as: A<1 uM; 1 uM<B<5 uM; C>5 uM.
IC50 [1] [nM],SMILES,IC50 (Kuramochi cells) [nM]
100 to 500,"Cc1nnc(-c2cnn3c(N4CCC5(CC4)COC5)cc(S(=O)(=O)NC4(C)CC4)cc23)o1 [Example 9, 3-(5-methyl-1,3,4-oxadiazol-2-yl)-N-(1-methylcyclopropyl)-7-(2-oxa-7-azaspiro[3.5]nonan-7-yl)pyrazolo[1,5-a]pyridine-5-sulfonamide]",< 1000
< 100,"O=S(=O)(NC1(C(F)F)CC1)c1cc(N2CCC3(CC2)COC3)n2ncc(-c3nnc(C(F)F)s3)c2c1 [Example 10, 3-(5-(difluoromethyl)-1,3,4-thiadiazol-2-yl)-N-(1-(difluoromethyl)cyclopropyl)-7-(2-oxa-7-azaspiro[3.5]nonan-7-yl)pyrazolo[1,5-a]pyridine-5-sulfonamide]",< 1000
< 100,"N#CC1(NS(=O)(=O)c2cc(C3CCN(C(=O)C4CC4)CC3)n3ncc(-c4nnc(C(F)F)s4)c3c2)CC1 [Example 11, N-(1-cyanocyclopropyl)-7-[1-(cyclopropanecarbonyl)-4-piperidyl]-3-[5-(difluoromethyl)-1,3,4-thiadiazol-2-yl]pyrazolo[1,5-a]pyridine-5-sulfonamide]",< 1000
< 100,"CC1(NS(=O)(=O)c2cc(N3CCC4(CC3)COC4)n3ncc(-c4nnc(C5(F)CC5)s4)c3c2)CC1 [Example 12, 3-(5-(1-fluorocyclopropyl)-1,3,4-thiadiazol-2-yl)-N-(1-methylcyclopropyl)-7-(2-oxa-7-azaspiro[3.5]nonan-7-yl)pyrazolo[1,5-a]pyridine-5-sulfonamide]",< 1000
100 to 500,"O=S(=O)(NC1(C(F)(F)F)CC1)c1cc(N2CCC3(CC2)COC3)n2ncc(-c3nnc(C(F)F)s3)c2c1 [Example 13, 3-[5-(difluoromethyl)-1,3,4-thiadiazol-2-yl]-7-(2-oxa-7-azaspiro[3.5]nonan-7-yl)-N-[1-(trifluoromethyl)cyclopropyl]pyrazolo[1,5-a]pyridine-5-sulfonamide]",1000 to 5000
< 100,"CC1(NS(=O)(=O)c2cc(N3CCC4(CC3)COC4)n3ncc(-c4nc(C(F)F)ns4)c3c2)CC1 [Example 25, 3-(3-(difluoromethyl)-1,2,4-thiadiazol-5-yl)-N-(1-methylcyclopropyl)-7-(2-oxa-7-azaspiro[3.5]nonan-7-yl)pyrazolo[1,5-a]pyridine-5-sulfonamide]",–
> 500,"O=C(N1CCN(c2cc(S(=O)(=O)NC34CC(C3)C4)cc3c2cnn3-c2nnc(C(F)F)s2)CC1)N1CC[C@H](O)C1 [Example 27, N-(1-bicyclo [1.1.1]pentanyl)-1-[5-(difluoromethyl)-1,3,4-thiadiazol-2-yl]-4-[4-[(3S)-3-hydroxypyrrolidine-1-carbonyl]piperazin-1-yl] indazole-6-sulfonamide]",–
100 to 500,"CC(=O)N1CCN(c2cc(S(=O)(=O)NC3(C)CC3)cc3c2cnn3-c2nnc(C3(O)CCC3)s2)CC1 [Example 29, 4-(4-acetylpiperazin-1-yl)-1-[5-(1-hydroxycyclobutyl)-1,3,4-thiadiazol-2-yl]-N-(1-methylcyclopropyl)indazole-6-sulfonamide]",–
> 500,"CC(=O)N1CCN(c2cc(S(=O)(=O)NC3(C)CC3)cc3c2cnn3-c2nc3c(s2)C(C)(O)COC3)CC1 (centres unmarked) [Example 30, 4-(4-acetylpiperazin-1-yl)-1-(7-hydroxy-7-methyl-6,7-dihydro-4H-pyrano[3,4-d]thiazol-2-yl)-N-(1-methylcyclopropyl)-1H-indazole-6-sulfonamide]",–
< 100,"CC(=O)N1CCN(c2cc(S(=O)(=O)NC3(C)CC3)cn3c(-c4nnc(C5(C#N)CC5)s4)cnc23)CC1 [Example 38, 8-(4-acetylpiperazin-1-yl)-3-(5-(1-cyanocyclopropyl)-1,3,4-thiadiazol-2-yl)-N-(1-methylcyclopropyl)imidazo[1,2-a]pyridine-6-sulfonamide]",–
< 100,"N#CC1(NS(=O)(=O)c2cc3c(-c4nnc(C(F)F)s4)ncn3c(N3CCC4(CC3)COC4)c2F)CC1 [Example 41, N-(1-cyanocyclopropyl)-1-(5-(difluoromethyl)-1,3,4-thiadiazol-2-yl)-6-fluoro-5-(2-oxa-7-azaspiro[3.5]nonan-7-yl)imidazo[1,5-a]pyridine-7-sulfonamide]",–

# The remaining lines, values behind:
SMILES,IC50 [1] [nM],IC50 (Kuramochi cells) [nM]
"CC1(NS(=O)(=O)c2cc(N3CCC4(CC3)COC4)n3ncc(-c4nnc(C(F)F)s4)c3c2)CC1 [Example 1, 3-(5-(difluoromethyl)-1,3,4-thiadiazol-2-yl)-N-(1-methylcyclopropyl)-7-(2-oxa-7-azaspiro[3.5]nonan-7-yl)pyrazolo[1,5-a]pyridine-5-sulfonamide]",< 100,< 1000
"N#CC1(NS(=O)(=O)c2cc(N3CCC4(CC3)COC4)n3ncc(-c4nnc(C(F)F)s4)c3c2)CC1 [Example 2, N-(1-cyanocyclopropyl)-3-(5-(difluoromethyl)-1,3,4-thiadiazol-2-yl)-7-(2-oxa-7-azaspiro[3.5]nonan-7-yl)pyrazolo[1,5-a]pyridine-5-sulfonamide]",< 100,< 1000
"N#CC1(NS(=O)(=O)c2cc(N3CCN(C(=O)C4CC4)CC3)n3ncc(-c4nnc(C(F)F)s4)c3c2)CC1 [Example 3, N-(1-cyanocyclopropyl)-7-[4-(cyclopropanecarbonyl)piperazin-1-yl]-3-[5-(difluoromethyl)-1,3,4-thiadiazol-2-yl]pyrazolo[1,5-a]pyridine-5-sulfonamide]",< 100,< 1000
"C#CC1(NS(=O)(=O)c2cc(N3CCC4(CC3)COC4)n3ncc(-c4nnc(C(F)F)s4)c3c2)CC1 [Example 4, 3-(5-(difluoromethyl)-1,3,4-thiadiazol-2-yl)-N-(1-ethynylcyclopropyl)-7-(2-oxa-7-azaspiro[3.5]nonan-7-yl)pyrazolo[1,5-a]pyridine-5-sulfonamide]",< 100,< 1000
CC1(NS(=O)(=O)c2cc(N3CCC4(CC3)COC4)n3ncc(-c4nncs4)c3c2)CC1 [Example 5],< 100,< 1000
"N#CC1(NS(=O)(=O)c2cc(C3=CCN(C(=O)C4CC4)CC3)n3ncc(-c4nnc(C(F)F)s4)c3c2)CC1 [Example 6, N-(1-cyanocyclopropyl)-7-(1-(cyclopropanecarbonyl)-1,2,3,6-tetrahydropyridin-4-yl)-3-(5-(difluoromethyl)-1,3,4-thiadiazol-2-yl)pyrazolo[1,5-a]pyridine-5-sulfonamide]",< 100,< 1000
"Cc1nnc(-c2cnn3c(N4CCC5(CC4)COC5)cc(S(=O)(=O)NC4(C)CC4)cc23)s1 [Example 7, 3-(5-methyl-1,3,4-thiadiazol-2-yl)-N-(1-methylcyclopropyl)-7-(2-oxa-7-azaspiro[3.5]nonan-7-yl)pyrazolo[1,5-a]pyridine-5-sulfonamide]",< 100,< 1000
"CC1(NS(=O)(=O)c2cc(N3CCC4(CC3)COC4)n3ncc(-c4nnc(C5(C#N)CC5)s4)c3c2)CC1 [Example 8, 3-(5-(1-cyanocyclopropyl)-1,3,4-thiadiazol-2-yl)-N-(1-methylcyclopropyl)-7-(2-oxa-7-azaspiro[3.5]nonan-7-yl)pyrazolo[1,5-a]pyridine-5-sulfonamide]",< 100,< 1000
